Source: US12365687B2 (Hoffmann-La Roche Inc., priority 2021, dated 2025)
Where two headings read alike, the source gives them in different places.

What was measured:
[1] = target: human GABAA α5β2γ1 receptor (Homo sapiens (Human), UniProt P31644+Q8N1C3); test: Radioligand binding assay for γ1-containing GABAA subtypes, [3H]RO7239181 competition (α5β2γ1)
[2] = target: human GABAA α2β2γ1 receptor (Homo sapiens (Human), UniProt P47869+Q8N1C3); test: Radioligand binding assay for γ1-containing GABAA subtypes, [3H]RO7239181 competition (α2β2γ1)
[3] = target: human GABAA α1β3γ2 receptor (Homo sapiens (Human), UniProt P14867+P18507); test: Radioligand binding assay for γ2-containing GABAA subtypes, [3H]Flumazenil competition (α1β3γ2); conditions: for γ2/γ1 Selectivity Ratio: Ki α1β3γ2 (nM)/Ki α2β2γ1 (nM); for LogSel: Log[Ki α1β3γ2 (nM)/Ki α2β2γ1 (nM)]
[4] = target: α2β2γ1 GABAA receptor subtype (Homo sapiens (Human), UniProt P47869+Q8N1C3); test: Two-electrode voltage clamp electrophysiology in Xenopus oocytes expressing GABAA receptors (modulation of GABA EC20 current); type: cell-based; conditions: for Efficacy (GABA)%: % modulation of GABA EC20 = 100*(Fold increase-1), α2β2γ1 oocytes, compound at approx. 30-fold Ki; for Fold increase h-GABA-A α2β2γ1 oocyte @ 30-fold Ki: Xenopus oocytes expressing α2β2γ1, compound at approx. 30-fold its Ki α2β2γ1, GABA EC20 current
Summary of the method: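 Each concentration was tested on ≥3 oocytes held at −80 mV at room temperature, recorded 3-5 days post-injection. A control and a test response to EC20 GABA (1.5 min each) were superimposed and their point-by-point ratio taken. Peak ratio reported as % modulation of GABA EC20 = 100×(fold increase−1).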

[5] = Ki h-GABAA α2β2γ1, [3H]RO7239181 competition binding, human GABAA α2β2γ1
[6] = Ki h-GABAA α2β2γ1, displacement of [3H]RO7239181, membranes of HEK293F cells expressing human receptors, means of two determinations

| Compound | Ki [1] [nM] | Ki ([2]; Ki h-GABAA α2β2γ1, Table 3, reference compounds) [nM] | Ki [2, 5] [nM] | Ki [2, 6] [nM] | Ki [3] [nM] | γ2/γ1 Selectivity Ratio [3] | LogSel [3] | γ2/γ1 Selectivity Ratio ([3]; Table 3) | LogSel ([3]; Table 3) | Ki ([3]; read-out: Ki h-GABAA α1β3γ2, Table 3, reference compounds) [nM] | Efficacy (GABA)% [4] [%] | Fold increase h-GABA-A α2β2γ1 oocyte @ 30-fold Ki [4] |
| --- | --- | --- | --- | --- | --- | --- | --- | --- | --- | --- | --- | --- |
| CN(C)C(=O)c1nc2n(n1)-c1ccc(Cl)c(Cl)c1C(c1c(F)cccc1F)=NC2 [Example 9, 7,8-dichloro-6-(2,6-difluorophenyl)-N,N-dimethyl-4H-[1,2,4]triazolo[1,5-a][1,4]benzodiazepine-2-carboxamide] | 1.15 | 5.5 | 5.5 | 5.5 | 989 | 179.8 | 2.25 | 179.8 | 2.25 | 989 | 123 | 2.23 |
| C[C@@H]1N=C(c2c(F)cccc2F)c2c(ccc(C(F)(F)F)c2Cl)-n2c(CO)cnc21 [Example 132, [(4S)-7-chloro-6-(2,6-difluorophenyl)-4-methyl-8-(trifluoromethyl)-4H-imidazo[1,2-a][1,4]benzodiazepin-1-yl]methanol] | 2.63 | – | 33.8 | 33.8 | 2560 | 75.8 | 1.88 | – | – | – | 105 | 2.05 |
| COCc1cn2c(n1)CN=C(c1c(F)cccc1F)c1c-2ccc(Cl)c1Cl [Example 5, 7,8-dichloro-6-(2,6-difluorophenyl)-2-(methoxymethyl)-4H-benzo[f]imidazo[1,2-a][1,4]diazepine] | 1.2 | – | 9.6 | 9.6 | 307 | 31.9 | 1.50 | – | – | – | 78 | 1.78 |
| C[C@@H]1N=C(c2ncccc2F)c2c(ccc(C(F)(F)F)c2Cl)-n2cc(C(=O)N3CC(F)C3)nc21 [Example 161, (3-fluoroazetidin-1-yl)-[(4S)-7-chloro-6-(3-fluoro-2-pyridyl)-4-methyl-8-(trifluoromethyl)-4H-imidazo[1,2-a][1,4]benzodiazepin-2-yl]methanone] | 21.3 | – | 72.8 | 72.7 | > 30000 | 412.4 | 2.62 | – | – | – | 165 | 2.65 |
| [2H]C([2H])([2H])OC1CN(C(=O)c2nc3n(n2)-c2ccc(Cl)c(Cl)c2C(c2c(F)cccc2F)=N[C@H]3C)C1 [Example 17, [(4S)-7,8-dichloro-6-(2,6-difluorophenyl)-4-methyl-4H-[1,2,4]triazolo[1,5-a][1,4]benzodiazepin-2-yl]-[3-(trideuteriomethoxy)azetidin-1-yl]methanone] | 1.3 | – | 2.6 | 2.59 | 579 | 223.3 | 2.35 | – | – | – | 44 | 1.44 |
| CO[C@H]1CCN(C(=O)c2nc3n(n2)-c2ccc(Cl)c(Cl)c2C(c2c(F)cccc2F)=N[C@H]3C)C1 [Example 45, [(4S)-7,8-dichloro-6-(2,6-difluorophenyl)-4-methyl-4H-[1,2,4]triazolo[1,5-a][1,4]benzodiazepin-2-yl]-[(3S)-3-methoxypyrrolidin-1-yl]methanone] | 2.2 | – | 5.4 | 5.39 | 1350 | 250.3 | 2.40 | – | – | – | 41 | 1.41 |
| Cc1c(C(=O)NC[C@@H](C)O)nc2n1-c1ccc(C(F)(F)F)c(Cl)c1C(c1ncccc1F)=N[C@H]2C [Example 162, (4S)-7-chloro-6-(3-fluoro-2-pyridyl)-1,4-dimethyl-N-[(2R)-2-hydroxypropyl]-8-(trifluoromethyl)-4H-imidazo[1,2-a][1,4]benzodiazepine-2-carboxamide] | 13.6 | – | 54.4 | 55.7 | 11700 | 210.1 | 2.32 | – | – | – | 148 | 2.48 |
| Cc1c(C(=O)NCCO)nc2n1-c1ccc(C(F)(F)F)c(Cl)c1C(c1ncccc1F)=N[C@H]2C [Example 154, (4S)-7-chloro-6-(3-fluoro-2-pyridyl)-N-(2-hydroxyethyl)-1,4-dimethyl-8-(trifluoromethyl)-4H-imidazo[1,2-a][1,4]benzodiazepine-2-carboxamide] | 23 | – | 68.7 | 68.7 | 11400 | 166.6 | 2.22 | – | – | – | 191 | 2.91 |
| CNS(=O)(=O)c1nc2n(n1)-c1ccc(Cl)c(Cl)c1C(c1c(F)cccc1F)=N[C@H]2C [Example 73, (4S)-7,8-dichloro-6-(2,6-difluorophenyl)-N,4-dimethyl-4H-[1,2,4]triazolo[1,5-a][1,4]benzodiazepine-2-sulfonamide] | 2.97 | – | 49.1 | 49.1 | 2170 | 44.1 | 1.64 | – | – | – | 58 | 1.58 |
| C[C@@H]1N=C(c2ncccc2F)c2c(ccc(Cl)c2Cl)-n2nc(C(=O)N3CC4(COC4)C3)nc21 [Example 102, [(4S)-7,8-dichloro-6-(3-fluoro-2-pyridyl)-4-methyl-4H-[1,2,4]triazolo[1,5-a][1,4]benzodiazepin-2-yl]-(2-oxa-6-azaspiro[3.3]heptan-6-yl)methanone] | 6.83 | – | 51.5 | 51.5 | 7250 | 140.7 | 2.15 | – | – | – | 143 | 2.43 |
| CCOC1CN(C(=O)c2nc3n(n2)-c2ccc(Cl)c(Cl)c2C(c2ncccc2F)=N[C@H]3C)C1 [Example 86, (3-ethoxyazetidin-1-yl)-[(4S)-7,8-dichloro-6-(3-fluoro-2-pyridyl)-4-methyl-4H-[1,2,4]triazolo[1,5-a][1,4]benzodiazepin-2-yl]methanone] | 6.13 | – | 37 | 37 | 2050 | 55.4 | 1.74 | – | – | – | 97 | 1.97 |
| Cc1cnc2n1-c1ccc(C(F)(F)F)c(Cl)c1C(c1ncccc1F)=N[C@H]2C [Example 136, (4S)-7-chloro-6-(3-fluoro-2-pyridyl)-1,4-dimethyl-8-(trifluoromethyl)-4H-imidazo[1,2-a][1,4]benzodiazepine] | 6.22 | – | 37.5 | 37.5 | 6130 | 163.5 | 2.21 | – | – | – | 116 | 2.16 |
| C[C@@H]1N=C(c2c(F)cccc2F)c2c(ccc(Cl)c2Cl)-n2nc(OC3COC3)nc21 [Example 92, (4S)-7,8-dichloro-6-(2,6-difluorophenyl)-4-methyl-2-(oxetan-3-yloxy)-4H-[1,2,4]triazolo[1,5-a][1,4]benzodiazepine] | 4.45 | – | 44.9 | 44.9 | 3280 | 73.0 | 1.86 | – | – | – | 44 | 1.44 |
| C[C@@H]1N=C(c2c(F)cccc2F)c2c(ccc(Cl)c2Cl)-n2nc(C(=O)NCC(F)F)nc21 [Example 59, (4S)-7,8-dichloro-N-(2,2-difluoroethyl)-6-(2,6-difluorophenyl)-4-methyl-4H-[1,2,4]triazolo[1,5-a][1,4]benzodiazepine-2-carboxamide] | 1.26 | – | 7 | 7 | 640 | 90.9 | 1.96 | – | – | – | 74 | 1.74 |
| [2H]C([2H])([2H])NC(=O)c1nc2n(n1)-c1ccc(Cl)c(Cl)c1C(c1c(F)cccc1F)=NC2 [Example 7, 7,8-dichloro-6-(2,6-difluorophenyl)-N-(trideuteriomethyl)-4H-[1,2,4]triazolo[1,5-a][1,4]benzodiazepine-2-carboxamide] | 0.75 | – | 6 | 6 | 455 | 75.6 | 1.88 | – | – | – | 68 | 1.68 |
| Cc1cnc2n1-c1ccc(C(F)(F)F)c(Cl)c1C(c1c(F)cccc1F)=N[C@H]2C [Example 115, (4S)-7-chloro-6-(2,6-difluorophenyl)-1,4-dimethyl-8-(trifluoromethyl)-4H-imidazo[1,2-a][1,4]benzodiazepine] | 2.63 | – | 12.3 | 12.3 | 827 | 67.4 | 1.83 | – | – | – | 49 | 1.49 |
